Tested on: EpidermFT™ Skin Model (EFT-400) full thickness skin cultures
Assay: Affymetrix GeneChip HG U133 Plus 2.0 microarray global gene expression, agent-exposed vs untreated skin cultures
Format: cell-based, human
Details: for Direction / Fold change: Salicin 0.5%
[1] = Salicin 0.5% vs Untreated Control, 24 hr

OCc1ccccc1O[C@@H]1O[C@H](CO)[C@@H](O)[C@H](O)[C@H]1O [Salicin, 2-(Hydroxymethyl)phenyl β-D-glucospyranoside]
down: Direction ABCD3 (202850_at) [1] | Direction ABCG4 (207593_at) [1] | Direction ACACA (212186_at) [1] | Direction ACAD9 (224160_s_at) [1] | Direction ACOX3 (204241_at) [1] | Direction ADAMTSL4 (226071_at) [1] | Direction ADARB1 (203865_s_at) [1] | Direction AHNAK (211986_at) [1] | Direction AIF1L (223075_s_at) [1] | Direction AK1 (202587_s_at) [1] | Direction AK3L1 /// AK3L2 (204347_at) [1] | Direction ALDH5A1 (203609_s_at) [1] | Direction ALOX12 (207206_s_at) [1] | Direction AMACR (209426_s_at) [1] | Direction AMOTL2 (203002_at) [1] | Direction ANK3 (207950_s_at) [1] | Direction APPL2 (218218_at) [1] | Direction AQP3 (203747_at) [1] | Direction ARHGAP27 (225618_at) [1] | Direction ARL17 /// ARL17P1 (1555964_at) [1] | Direction ARPC1A (200950_at) [1] | Direction ASAP3 (222236_s_at) [1] | Direction ATP2B4 (212136_at) [1] | Direction ATXN3 (205416_s_at) [1] | Direction BAIAP2 (205293_x_at) [1] | Direction BCL11A (1559078_at) [1] | Direction BCL11B (222895_s_at) [1] | Direction BICD2 (1553021_s_at) [1] | Direction BLCAP (201032_at) [1] | Direction C1orf46 (216718_at) [1] | Direction C1orf71 (225551_at) [1] | Direction C1orf97 (224443_at) [1] | Direction C2orf7 (223312_at) [1] | Direction C4orf3 (224605_at) [1] | Direction C6orf105 (215100_at) [1] | Direction C12orf29 (228378_at) [1] | Direction C15orf52 (227272_at) [1] | Direction C17orf67 (236863_at) [1] | Direction C20orf177 (225313_at) [1] | Direction CALM1 /// CALM2 /// CALM3 (200653_s_at) [1] | Direction CALM1 /// CALM2 /// CALM3 (209563_x_at) [1] | Direction CAT (211922_s_at) [1] | Direction CENPT (218148_at) [1] | Direction CEP76 (52285_f_at) [1] | Direction CERK (218421_at) [1] | Direction CKB (200884_at) [1] | Direction CLCN5 (232127_at) [1] | Direction CLDN7 (202790_at) [1] | Direction CLIP1 (1558924_s_at) [1] | Direction CLN8 (229958_at) [1] | Direction CNDP2 (217752_s_at) [1] | Direction CNTN1 (211203_s_at) [1] | Direction CSNK2A2 (203575_at) [1] | Direction CTAGE4 (215549_x_at) [1] | Direction CXCL12 (203666_at) [1] | Direction CYB5R1 (202263_at) [1] | Direction CYCS (244546_at) [1] | Direction DBI (211070_x_at) [1] | Direction DDR1 (1007_s_at) [1] | Direction DDX50 (1568815_a_at) [1] | Direction DHRS4 /// DHRS4L2 (218021_at) [1] | Direction DMD (203881_s_at) [1] | Direction DOPEY2 (205248_at) [1] | Direction ELOVL3 (234513_at) [1] | Direction EPCAM (201839_s_at) [1] | Direction EPHB4 (202894_at) [1] | Direction EPHB6 (204718_at) [1] | Direction ERI2 (213365_at) [1] | Direction F2RL1 (206429_at) [1] | Direction FAM33A (225684_at) [1] | Direction FAR1 (224865_at) [1] | Direction FBXO3 (229955_at) [1] | Direction FBXO3 (238686_at) [1] | Direction FBXO9 (212991_at) [1] | Direction FBXO9 (1559094_at) [1] | Direction FIGNL1 (222843_at) [1] | Direction FKBP1B (206857_s_at) [1] | Direction FKBPL (219187_at) [1] | Direction FRAG1 (41858_at) [1] | Direction FUCA1 (202838_at) [1] | Direction FUT2 (210608_s_at) [1] | Direction GAB1 (225998_at) [1] | Direction GAS7 (202192_s_at) [1] | Direction GDAP1 (226269_at) [1] | Direction GNG4 (205184_at) [1] | Direction GPR1 (214605_x_at) [1] | Direction GPR137B (204137_at) [1] | Direction GSN (200696_s_at) [1] | Direction HES5 (239230_at) [1] | Direction HIGD1A (217845_x_at) [1] | Direction HN1 (222396_at) [1] | Direction HN1L (212115_at) [1] | Direction HSDL2 (209512_at) [1] | Direction ID2 (201565_s_at) [1] | Direction IDH2 (210045_at) [1] | Direction IL22RA1 (220056_at) [1] | Direction INPP5D (203332_s_at) [1] | Direction ITGA3 (201474_s_at) [1] | Direction JAG1 (209099_x_at) [1] | Direction JAG1 (216268_s_at) [1] | Direction JMJD7 /// JMJD7-PLA2G4B /// PLA2G4B (222256_s_at) [1] | Direction KCNK7 (224055_x_at) [1] | Direction KCTD15 (222668_at) [1] | Direction KIF1B (209234_at) [1] | Direction KIF1B (225878_at) [1] | Direction KLK1 (216699_s_at) [1] | Direction KRT5 (201820_at) [1] | Direction KRT6A (209125_at) [1] | Direction KRT10 (207023_x_at) [1] | Direction KRTCAP3 (235148_at) [1] | Direction LMNA (212089_at) [1] | Direction LMNA (1554600_s_at) [1] | Direction LMNB1 (203276_at) [1] | Direction LOC284837 (1563088_a_at) [1] | Direction LOC286440 (209733_at) [1] | Direction LOC400027 (226413_at) [1] | Direction LOC401233 (1558882_at) [1] | Direction LOC648245 (227739_at) [1] | Direction LOC652968 (233528_s_at) [1] | Direction LOC727820 (227384_s_at) [1] | Direction LOC100128443 /// MAST4 (210958_s_at) [1] | Direction LOC100128822 (235174_s_at) [1] | Direction LOC100130837 (242255_at) [1] | Direction LOC100131262 (1558152_at) [1] | Direction LOC100131851 /// LOC100134497 /// LOC401002 /// LOC646674 /// SSBP3 (222482_at) [1] | Direction LOC100133772 /// SLC16A5 (206600_s_at) [1] | Direction LOC100134937 (229685_at) [1] | Direction LPHN1 (47560_at) [1] | Direction LY75 (205668_at) [1] | Direction LYSMD4 (228954_at) [1] | Direction MAFB (218559_s_at) [1] | Direction MAPRE2 (202501_at) [1] | Direction MEGF9 (212831_at) [1] | Direction MFAP5 (213764_s_at) [1] | Direction MIB2 (226644_at) [1] | Direction MPP7 (238451_at) [1] | Direction MTHFR (226929_at) [1] | Direction MTMR1 (214975_s_at) [1] | Direction MUC1 (213693_s_at) [1] | Direction MYO18A /// TIAF1 (202039_at) [1] | Direction NBEAL2 (212443_at) [1] | Direction NCF2 (209949_at) [1] | Direction NCRNA00086 (238697_at) [1] | Direction PAIP1 (208051_s_at) [1] | Direction PAIP2B (221868_at) [1] | Direction PAWR (204005_s_at) [1] | Direction PAWR (229515_at) [1] | Direction PDIK1L (227255_at) [1] | Direction PERP (217744_s_at) [1] | Direction PIGW (1558292_s_at) [1] | Direction PLEKHA2 (225136_at) [1] | Direction PLS3 (201215_at) [1] | Direction PNMA2 (209598_at) [1] | Direction POLE2 (205909_at) [1] | Direction POLH (231115_at) [1] | Direction POLR3B (219459_at) [1] | Direction POU3F1 (208345_s_at) [1] | Direction PPAP2C (209529_at) [1] | Direction PPP1CB (201409_s_at) [1] | Direction PPP2CA (208652_at) [1] | Direction PRDX2 (39729_at) [1] | Direction PRKX (204061_at) [1] | Direction PTCH1 (209815_at) [1] | Direction PTGFR (1555097_a_at) [1] | Direction PVRL1 (225211_at) [1] | Direction RAB7B (1553982_a_at) [1] | Direction RAPGEFL1 (218657_at) [1] | Direction RHOV (241990_at) [1] | Direction RICS (203431_s_at) [1] | Direction RNF170 (226104_at) [1] | Direction RORA (235567_at) [1] | Direction RPS6KA5 (204633_s_at) [1] | Direction RPS6KB2 (203777_s_at) [1] | Direction SCRN3 (222849_s_at) [1] | Direction SDCCAG8 (243963_at) [1] | Direction SEMA4D (203528_at) [1] | Direction SERPINB1 (213572_s_at) [1] | Direction SETBP1 (227478_at) [1] | Direction SHROOM2 (204967_at) [1] | Direction SLC5A3 (212944_at) [1] | Direction SLC24A3 (219090_at) [1] | Direction SLC45A4 (225598_at) [1] | Direction SLCO3A1 (219229_at) [1] | Direction SMAP2 (225282_at) [1] | Direction SMCR7 (235896_s_at) [1] | Direction SNX21 (1553960_at) [1] | Direction SNX24 (218705_s_at) [1] | Direction SORD (201563_at) [1] | Direction ST8SIA4 (230836_at) [1] | Direction STK24 (208854_s_at) [1] | Direction SYNGR2 (201079_at) [1] | Direction TANC1 (225308_s_at) [1] | Direction TCEA3 (226388_at) [1] | Direction TCHP (223455_at) [1] | Direction TGOLN2 (1554608_at) [1] | Direction THBD (203888_at) [1] | Direction TIMM22 (219184_x_at) [1] | Direction TMC5 (222904_s_at) [1] | Direction TMEM19 (226860_at) [1] | Direction TMEM45A (219410_at) [1] | Direction TMEM50B (225182_at) [1] | Direction TMEM80 (65630_at) [1] | Direction TP53I3 (210609_s_at) [1] | Direction TRAF3IP2 (202987_at) [1] | Direction TRIM2 (202342_s_at) [1] | Direction TTC30B (1554588_a_at) [1] | Direction VPS4B (218171_at) [1] | Direction WNK1 (39313_at) [1] | Direction WNK1 (211993_at) [1] | Direction ZBTB1 (1557036_at) [1] | Direction ZDHHC21 (241946_at) [1] | Direction ZFYVE21 (219929_s_at) [1] | Direction ZHX1 (223213_s_at) [1] | Direction ZHX1 (223214_s_at) [1] | Direction ZNF85 (1554445_at) [1] | Direction ZNF561 (235200_at) [1] | Direction ZNF589 (219968_at) [1] | Direction ZNF823 (229732_at) [1]
2.151: Fold change (1561042_at ITGB1, 24 hr)
2.096: Fold change (1555270_a_at WFS1, 24 hr)
2.141: Fold change (1554602_at RBM8A, 24 hr)
up: Direction (1554602_at RBM8A, 24 hr) | Direction (1555270_a_at WFS1, 24 hr) | Direction (1559477_s_at MEIS1, 24 hr) | Direction (1561042_at ITGB1, 24 hr) | Direction ABHD2 (205566_at) (Salicin 0.5% vs Untreated Control, 24 hr treatment)
2.098: Fold change (1559477_s_at MEIS1, 24 hr)

From US20120034613A1, “Apparatus and Method for Testing Relationships Between Gene Expression and Physical Appearance of Skin” (NSE Products, Inc., priority 2010, published 2012)
